The source of these data is ChEMBL document CHEMBL4130368, “Thienopyrimidine derivatives exert their anticancer efficacy via apoptosis induction, oxidative stress and mitotic catastrophe” (Eur J Med Chem, 2017).

The source made the active and inactive calls. The calls are words filed in the database; no cut-off is given here.

The subject of data set [1] is 2008. Kind of data set: Induction of apoptosis in human OV2008 cells assessed as necrotic cells at 1 uM measured after overnight incubation by mitotracker red/alexa fluor-488 Annexin V staining-based flow cytometry (reference value: 6.31%). Format: functional. Background: In flow cytometry, cells or beads pass a laser one at a time.
The test system of data set [2] is 2008. Kind of data set: Induction of morphological changes in human OV2008 cells at 0.1 to 3 uM after 68 hrs by microscopic method. The class given is functional, cell-based.
In data set [3] the test system is 2008. Kind of data set: Cell cycle arrest in human OV2008 cells assessed as accumulation at G2 phase at 2 uM measured after overnight incubation by propidium iodide staining-based flow cytometry (reference value: 26.9%). Format: functional.
Data set [4] concerns 2008. Kind of data set: Induction of apoptosis in human OV2008 cells assessed as early apoptotic cells at 1 uM measured after overnight incubation by mitotracker red/alexa fluor-488 Annexin V staining-based flow cytometry (reference value: 12.9%). Format: functional.
Data set [5] is described as follows: Selectivity index, ratio of IC50 for CHO cells to IC50 for human A2780 cells. The conditions noted are these: Chinese hamster (CHO cells), CHO cells versus A2780 cells, read-out: Ratio IC50. The class given is toxicity.
Data set [6] concerns 2008. Nature of the data set: Cell cycle arrest in human OV2008 cells assessed as accumulation at subG1 phase at 2 uM measured after overnight incubation by propidium iodide staining-based flow cytometry (reference value: 2.64%). The class given is functional.
A further data set deals with A2780. Kind of data set: Cell cycle arrest in human A2780 cells assessed as accumulation at G2 phase at 2 uM measured after overnight incubation by propidium iodide staining-based flow cytometry (reference value: 24.9%). Format: functional.
A further data set deals with HCT-116. Nature of the data set: Cell cycle arrest in human HCT116 cells assessed as accumulation at subG1 phase at 2 uM measured after overnight incubation by propidium iodide staining-based flow cytometry (reference value: 0.154%). Format: functional.
Data set [7] deals with 2008. Kind of data set: Induction of apoptosis in human OV2008 cells assessed as cell shrinkage at 0.5 to 2 uM measured after overnight incubation by DAPI-staining based microscopy. The class given is functional.

In the case of `COc1ccc(-c2nc(O)c3c4c(sc3n2)CCCC4)cc1`, the Activity in the data set on 2008 [1] stood at 4.31%; in the data set with 2008 [3] it was 41.1%; in the data set with 2008 [4] it was 20.3%; in the data set with 2008 [6], 1.29%; in the data set with A2780, 63.5%; with HCT-116, 0.097%. The result in the data set on 2008 [2] and in the data set on 2008 [7] was Active. Besides, the selectivity ratio in data set [5] lay within 17 to 28.
